Source: ChEMBL document CHEMBL1201862, “PubChem BioAssay data set” (2004)
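Cultured in 96-well plates, cells were exposed to test compound for 48 hours across five concentrations. GI50 = concentration required for 50% inhibition of growth.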 Active and inactive are the calls of the source. Cut-off read from the data, not from the text of the source: active = GI50 up to about 1.1 µM and inactive = higher.

Columns and labels:
Assay in all cases: NCI-60 cell line screen, 48 h
[1] = system: RPMI-8226
[2] = system: DU-145
[3] = system: SF-539
[4] = system: SNB-19
[5] = system: UO-31
[6] = system: MDA-MB-435
[7] = system: A498
[8] = system: SK-MEL-28
[9] = system: HT-29
[10] = system: OVCAR-3
[11] = system: NCI-H522
[12] = system: IGROV-1
[13] = system: Malme-3M
[14] = system: MOLT-4
[15] = system: SW-620
[16] = system: KM12
[17] = system: 786-0
[18] = system: ACHN
[19] = system: PC-3
[20] = system: UACC-257
[21] = system: U-251
[22] = system: HCT-15
[23] = system: SNB-75
[24] = system: LOX IMVI
[25] = system: HOP-92
[26] = system: MDA-MB-231
[27] = system: BT-549
[28] = system: SN12C
[29] = system: T47D
[30] = system: SK-MEL-5
[31] = system: EKVX
[32] = system: OVCAR-8
[33] = system: A549
[34] = system: COLO 205
[35] = system: M14
[36] = system: NCI-H460
[37] = system: K562
[38] = system: HL-60
[39] = system: OVCAR-4
[40] = system: CCRF-CEM
[41] = system: CAKI-1
[42] = system: UACC-62
[43] = system: Hs-578T
[44] = system: HOP-62
[45] = system: SR
[46] = system: SK-OV-3
[47] = system: SF-295
[48] = system: SK-MEL-2
[49] = system: SF-268
[50] = system: MDA-N
[51] = system: TK-10
[52] = system: NCI-H226
[53] = system: OVCAR-5
[54] = system: RXF 393
[55] = system: NCI-H23
[56] = system: MCF7
[57] = system: NCI/ADR-RES
[58] = system: HCT-116

`COc1ccc(/C=C2\OC(=O)C(Cl)=C2c2ccc(OC)cc2)cc1` was tested, and the GI50 [1] was > 100 µM (inactive), the GI50 [2] was > 100 µM (inactive) and the GI50 [3] was > 100 µM (inactive). For the same molecule, the GI50 [4] was > 100 µM (inactive), the GI50 [5] was > 100 µM (inactive) and the GI50 [6] was > 100 µM (inactive). For the same molecule, the GI50 [7] was > 100 µM (inactive), the GI50 [8] was > 100 µM (inactive) and the GI50 [9] was > 100 µM (inactive). For the same molecule, the GI50 [10] was > 100 µM (inactive), the GI50 [11] was 66.2 µM (inactive) and the GI50 [12] was > 100 µM (inactive). The GI50 [13] was > 100 µM (inactive), the GI50 [14] was > 100 µM (inactive) and the GI50 [15] was > 100 µM (inactive). The GI50 [16] was > 100 µM (inactive), the GI50 [17] was 45.6 µM (inactive) and the GI50 [18] was > 100 µM (inactive). The GI50 [19] was 63 µM (inactive), the GI50 [20] was > 100 µM (inactive) and the GI50 [21] was 89.3 µM (inactive). The GI50 [22] was greater than 100 µM, the GI50 [23] was > 100 µM (inactive) and the GI50 [24] was > 100 µM (inactive). For the same molecule, the GI50 [25] was 14 µM (inactive), the GI50 [26] was > 100 µM (inactive) and the GI50 [27] was 99.5 µM (inactive). The GI50 [28] was > 100 µM (inactive), the GI50 [29] was > 100 µM (inactive) and the GI50 [30] was > 100 µM (inactive). The GI50 [31] was > 100 µM (inactive), the GI50 [32] was 85.7 µM (inactive) and the GI50 [33] was > 100 µM (inactive). The GI50 [34] was > 100 µM (inactive), the GI50 [35] was > 100 µM (inactive) and the GI50 [36] was > 100 µM (inactive). For the same molecule, the GI50 [37] was > 100 µM (inactive), the GI50 [38] was > 100 µM (inactive) and the GI50 [39] was 86.9 µM (inactive). For the same molecule, the GI50 [40] was > 100 µM (inactive), the GI50 [41] was > 100 µM (inactive) and the GI50 [42] was > 100 µM (inactive). For the same molecule, the GI50 [43] was > 100 µM (inactive), the GI50 [44] was 28 µM (inactive) and the GI50 [45] was > 100 µM (inactive). The GI50 [46] was > 100 µM (inactive), the GI50 [47] was > 100 µM (inactive) and the GI50 [48] was > 100 µM (inactive). The GI50 [49] was 40.4 µM (inactive), the GI50 [50] was > 100 µM (inactive) and the GI50 [51] was 84.5 µM (inactive).

For `CN1CCc2c(sc3ncn(C)c(=N)c23)C1`, the GI50 [1] was > 100 µM (inactive), the GI50 [2] was > 100 µM (inactive) and the GI50 [3] was > 100 µM (inactive). The GI50 [4] was > 100 µM (inactive), the GI50 [6] was > 100 µM (inactive) and the GI50 [7] was > 100 µM (inactive). The GI50 [8] was > 100 µM (inactive), the GI50 [9] was > 100 µM (inactive) and the GI50 [10] was > 100 µM (inactive). The GI50 [52] was > 100 µM (inactive), the GI50 [11] was > 100 µM (inactive) and the GI50 [12] was > 100 µM (inactive). For the same molecule, the GI50 [13] was > 100 µM (inactive), the GI50 [14] was > 100 µM (inactive) and the GI50 [15] was > 100 µM (inactive). For the same molecule, the GI50 [16] was > 100 µM (inactive), the GI50 [17] was > 100 µM (inactive) and the GI50 [53] was > 100 µM (inactive). For the same molecule, the GI50 [18] was > 100 µM (inactive), the GI50 [19] was > 100 µM (inactive) and the GI50 [20] was > 100 µM (inactive). For the same molecule, the GI50 [21] was > 100 µM (inactive), the GI50 [22] was greater than 100 µM and the GI50 [23] was > 100 µM (inactive). The GI50 [24] was > 100 µM (inactive), the GI50 [25] was > 100 µM (inactive) and the GI50 [54] was > 100 µM (inactive). For the same molecule, the GI50 [26] was > 100 µM (inactive), the GI50 [27] was > 100 µM (inactive) and the GI50 [28] was > 100 µM (inactive). The GI50 [29] was > 100 µM (inactive), the GI50 [30] was > 100 µM (inactive) and the GI50 [31] was > 100 µM (inactive). For the same molecule, the GI50 [32] was > 100 µM (inactive), the GI50 [33] was > 100 µM (inactive) and the GI50 [34] was > 100 µM (inactive). For the same molecule, the GI50 [35] was > 100 µM (inactive), the GI50 [55] was > 100 µM (inactive) and the GI50 [36] was > 100 µM (inactive). The GI50 [37] was > 100 µM (inactive), the GI50 [38] was > 100 µM (inactive) and the GI50 [56] was > 100 µM (inactive). For the same molecule, the GI50 [57] was > 100 µM (inactive), the GI50 [39] was > 100 µM (inactive) and the GI50 [40] was > 100 µM (inactive). For the same molecule, the GI50 [41] was > 100 µM (inactive), the GI50 [42] was > 100 µM (inactive) and the GI50 [43] was > 100 µM (inactive). For the same molecule, the GI50 [44] was > 100 µM (inactive), the GI50 [58] was > 100 µM (inactive) and the GI50 [46] was > 100 µM (inactive). For the same molecule, the GI50 [47] was > 100 µM (inactive), the GI50 [48] was > 100 µM (inactive) and the GI50 [49] was > 100 µM (inactive). The GI50 [50] was > 100 µM (inactive) and the GI50 [51] was > 100 µM (inactive).
